Results reported in PubChem BioAssay AID1508610 (The Scripps Research Institute Molecular Screening Center, 2020).
Calls of active or inactive are those of the source. The rule behind the calls is not given here.

Biological target: G-protein coupled receptor 151 (Homo sapiens) (UniProt Q8TDV0)
Test: GPR151 activator potency, dose response, cell-based (AID 1508610)
Conditions: cell-based GPR151 activation reporter

G-protein coupled receptor 151 (Homo sapiens), sequence (Q8TDV0 whole entry, looked up): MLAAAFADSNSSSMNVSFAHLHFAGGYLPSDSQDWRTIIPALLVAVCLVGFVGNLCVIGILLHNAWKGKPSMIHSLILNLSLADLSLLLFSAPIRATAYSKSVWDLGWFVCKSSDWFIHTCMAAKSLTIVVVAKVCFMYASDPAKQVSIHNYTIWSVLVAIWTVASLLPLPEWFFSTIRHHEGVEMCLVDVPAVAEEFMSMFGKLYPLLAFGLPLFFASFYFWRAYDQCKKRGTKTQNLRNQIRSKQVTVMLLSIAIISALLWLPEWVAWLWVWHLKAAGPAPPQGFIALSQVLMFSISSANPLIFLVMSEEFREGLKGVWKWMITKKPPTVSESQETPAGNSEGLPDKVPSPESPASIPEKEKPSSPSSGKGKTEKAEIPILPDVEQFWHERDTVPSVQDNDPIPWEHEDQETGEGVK

| EC50 | Compound |
| --- | --- |
| > 28 µM (inactive) | CSC1=NSC2=NC(=O)/C(=C\c3ccc([N+](=O)[O-])cc3)C(=N)N12 |
| > 28 µM (inactive) | O=C1CC(c2ccc(O)cc2)Oc2ccccc21 (configuration not stated) |
| > 25 µM (inactive) | CCN(CC)S(=O)(=O)c1ccc(C(=O)Nc2ccc(Cc3ccncc3)cc2)cc1 |
| > 26.1 µM (inactive) | COc1ccc(-c2nc(Nc3ccc(C)c(Cl)c3)c3ccccc3n2)cc1OC |
| > 28 µM (inactive) | C[C@H]1NC(=O)[C@H]2CN(C(=O)NCc3ccccc3)CCN2C1=O |
| > 28 µM (inactive) | C=CCN(c1ccc(C(=O)Nc2ccc(Cl)cc2)cc1)S(C)(=O)=O |
| > 28 µM (inactive) | Cc1cc(Br)ccc1NC(=O)c1ccc(C#N)cc1F |
| > 28 µM (inactive) | C/C(=C\c1ccccc1)C(=O)NCCc1ccccc1 |
| > 26.6 µM (inactive) | CCOc1ccc(S(=O)(=O)N(CC(=O)NCCSc2ccccc2)c2ccccc2)cc1 |
| > 30.9 µM (inactive) | Cc1ccn2cc(-c3ccc(F)cc3)nc2c1 |
| > 28 µM (inactive) | O=C(O)c1cccc(NC(=O)c2ccc(Br)o2)c1 |
| > 28 µM (inactive) | CC(NC(=O)c1ccco1)c1nnc2n1CCN(Cc1cccc(F)c1)CC2 (configuration not stated) |
| > 28 µM (inactive) | Oc1ccc(Nc2ncnc3ccc(I)cc23)cc1 |
| > 28 µM (inactive) | O=C(COc1ccc(C(=O)NCCc2ccccc2)cc1)Nc1ccccc1F |
| > 28 µM (inactive) | COc1cccn2c(C(=O)Nc3ccc(Cl)cc3)c(C(F)(F)F)nc12 |
| > 28 µM (inactive) | COc1ccccc1N(CC(=O)Nc1ccccc1C(=O)NCC(C)C)S(C)(=O)=O |
| > 26.2 µM (inactive) | COc1ccccc1C(=O)Nc1nc2ccccc2s1 |
| > 35.5 µM (inactive) | CSc1nc(-c2ccccc2)cn1-c1ccc(F)cc1 |
| > 28.6 µM (inactive) | N#Cc1ccsc1NC(=O)/C=C/c1ccccc1 |
| > 28 µM (inactive) | COc1ccc(C(=O)N(C)Cc2ccccc2)cc1I |
| > 27.9 µM (inactive) | COc1ccc(-c2ccc(C(=O)Nc3ccccc3)s2)cc1 |
| > 28 µM (inactive) | Cn1nc(C(=O)NCc2ccc(F)cc2)c2c1-c1ccccc1OC2 |
| > 28 µM (inactive) | COc1ccc(N(CC(=O)Nc2ccccc2-c2ccccc2)S(C)(=O)=O)cc1 |
| > 28 µM (inactive) | CNc1nc2c(-c3ccc(Cl)cc3)nnn2c2ccccc12 |
| > 28 µM (inactive) | Cc1ccc(NC(=O)/C(C#N)=C\c2ccccc2O)cc1C |
| > 28.4 µM (inactive) | CCOc1ccc(/C=C2\SC(=S)N(CC(=O)Nc3ccc(O)cc3)C2=O)cc1 |

| EC50 | Compound |
| --- | --- |
| > 28.5 µM (inactive) | C=CCN1C(=O)CS/C1=N\NC(=O)c1ccccc1 |
| > 28.9 µM (inactive) | O=[N+]([O-])c1ccc(/C=C/c2ccc(O)cc2)cc1 |
| > 28 µM (inactive) | Clc1ccccc1/C=C/c1nc(-c2ccccn2)no1 |
| > 28.1 µM (inactive) | O=C(Cc1cn(-c2ccc(Cl)nn2)c2ccccc12)NCCN1CCOCC1 |
| > 28 µM (inactive) | CC1CC(=O)N(C)c2ccccc2S1 (configuration not stated) |
| > 28.9 µM (inactive) | C/C=C/C(=O)N(CC)c1ccccc1C |
| > 28 µM (inactive) | Cc1nc(NC(=O)CSc2ccc(-c3nc4ccccc4[nH]3)cn2)sc1C |
| > 28 µM (inactive) | Cc1ccc(Oc2nc3ccccn3c(=O)c2/C=C(\C#N)C(N)=O)c(C)c1 |
| > 26.9 µM (inactive) | Cc1cccc(-n2ncc3c(Nc4ccc(F)cc4F)ncnc32)c1 |
| > 23.6 µM (inactive) | CCOC(=O)COc1ccc(/C=C2\C=C(c3ccc(Br)cc3)OC2=O)cc1OC |
| > 23.5 µM (inactive) | Cc1cc(Br)ccc1Nc1nc(-c2ccccc2F)nc2ccccc12 |
| > 28 µM (inactive) | CCOC(=O)COc1ccc2c(=O)c(Oc3cccc(OC)c3)coc2c1 |
| > 17.2 µM (inactive) | O=C(Nc1ccc(Oc2cc3ccccc3cc2Cl)c(Cl)c1)c1cc(Br)cc(Br)c1O |
| 1e-05 µM | CC(=O)Oc1cccc(N2C(=O)C3C4c5ccccc5C(C)(c5ccccc54)C3C2=O)c1 (configuration not stated) |
| inactive | O=C1/C(=C\c2ccncc2)SC(=S)N1Cc1ccccc1 |
| 1.17 µM | COc1ccc(CCNc2cc(C)nc(Nc3ccc(-n4ccnc4)cc3)n2)cc1 |
| > 28 µM (inactive) | OC(c1cccnc1)c1ccc2c(c1)CN(Cc1cccc(Cl)c1)CCO2 (configuration not stated) |
| > 37 µM (inactive) | Cn1c(/C=C/c2ccccc2)nc2ccccc21 |
| > 28 µM (inactive) | CCC(C(=O)OC)n1cnc2scc(-c3cccc([N+](=O)[O-])c3)c2c1=O (configuration not stated) |
| > 28 µM (inactive) | COc1ccc(-c2cnn(-c3ccc(C(=O)O)cc3)c2)cc1 |
| > 28 µM (inactive) | Cc1ccc(CNC(=O)c2csnn2)cc1 |
| > 28 µM (inactive) | COc1ccccc1OCCCN1C(=O)C(=O)c2cc(Br)cc(C)c21 |
| > 25.9 µM (inactive) | O=C(Oc1ccc2cc(Br)ccc2c1)c1ccco1 |
| > 28 µM (inactive) | Fc1ccc2nc(N3CCN(c4nc5ccccc5s4)CC3)sc2c1 |
| > 28 µM (inactive) | Cc1cn2c(=O)c(C(=O)NOCc3cccc(C(F)(F)F)c3)cnc2s1 |
| > 28 µM (inactive) | Cc1nn(-c2ccccc2)c(Cl)c1/C=N\O |

Second part, the compound before the results:

| Compound | EC50 |
| --- | --- |
| Cc1ccc(Nc2nc(N(C)C)nc3c2cnn3C)cc1C | > 28.4 µM (inactive) |
| COc1ccc(C(=O)/C=C\N2CCOCC2)cc1 | > 28 µM (inactive) |
| COc1ccc(Cl)cc1NC(=O)Nc1cccc([N+](=O)[O-])c1C | > 28 µM (inactive) |
| Cc1cc(-n2c(SCC(=O)NCc3ccco3)nc3n[nH]c(C)c3c2=N)ccc1Cl | > 24.4 µM (inactive) |
| CSc1nccc(-c2cc(Cl)c3c(c2)CC(CNC(=O)c2ccoc2)O3)n1 (configuration not stated) | > 28 µM (inactive) |
| COc1cc(CNc2ccc3ncc(-c4cnn(C)c4)n3n2)cc(OC)c1OC | > 28 µM (inactive) |
| CC(C)CC(NC(=O)C(C)NC(=O)CNC(=O)C(NC=O)C(C)C)C(=O)NC(C)C(=O)NC(C(=O)NC(C(=O)NC(C(=O)NC(Cc1c[nH]c2ccccc12)C(=O)NC(CC(C)C)C(=O)NC(Cc1c[nH]c2ccccc12)C(=O)NC(CC(C)C)C(=O)NC(Cc1c[nH]c2ccccc12)C(=O)NC(CC(C)C)C(=O)NC(Cc1c[nH]c2ccccc12)C(=O)NCCO)C(C)C)C(C)C)C(C)C (configuration not stated) | 0.97 µM |
| Cc1sc(NC(=O)c2ccco2)c(CN2CCN(CCO)CC2)c1C | > 27.7 µM (inactive) |
| CCOC(=O)c1sc(NC(=O)c2sccc2C)cc1C | > 29 µM (inactive) |
| COc1ccc(C[C@H](N)C(=O)N[C@@H]2[C@@H](CO)OC(n3cnc4c(N(C)C)ncnc43)[C@@H]2O)cc1 (some centres not stated) | > 28 µM (inactive) |
| O=C(Nc1cc(C(F)(F)F)ccc1F)C1CCCC1 | > 28 µM (inactive) |
| Cc1ccc(-c2nnc3sc(NC(=O)CC(C)C)nn23)cc1 | > 28 µM (inactive) |
| Cc1ccc(CCNS(=O)(=O)c2ccc3c(c2)OCCN3C)cc1 | > 28 µM (inactive) |
| COCCNC(=O)/C(C#N)=C/C=C/c1ccccc1 | > 30.6 µM (inactive) |
| NC[C@H]1O[C@H](O[C@H]2[C@H](O)[C@@H](O[C@H]3O[C@H](CO)[C@@H](O)[C@H](N)[C@H]3O)[C@H](N)C[C@@H]2N)[C@H](N)C[C@@H]1O | > 28 µM (inactive) |
| CN1CCN(c2ccc(/C=C(\C#N)C(N)=O)cc2[N+](=O)[O-])CC1 | > 28 µM (inactive) |
| N#Cc1ccc(NC(=O)COC(=O)CCC(=O)c2ccc3c(c2)OCCO3)cc1 | > 28.4 µM (inactive) |
| CCN(CC)C(=O)Cn1cnc2sc(C(=O)Nc3cc(C)ccc3OC)c(C)c2c1=O | > 25.7 µM (inactive) |
| CC(=O)c1c(C)[nH]c(C(=O)N2CCN(c3ccccc3)CC2)c1C | > 28 µM (inactive) |
| CCCCCCOc1ccc(C(=O)O)cc1OC | > 31.1 µM (inactive) |
| O=C(Nc1nnc(SCc2cccc(F)c2)s1)C1CC1 | > 29 µM (inactive) |
| COc1ccc(C2C3C(C)=NN=C3CC(C)(O)C2C(C)=O)cc1 (configuration not stated) | inactive |
| CCOCC(=O)NC12CC3CC(CC(C3)C1)C2 | > 44.2 µM (inactive) |

| Compound | EC50 |
| --- | --- |
| COc1ccc(CCNC(=O)c2sc3nc(C)nc(N4CCCCC4)c3c2C)cc1OC | > 27.6 µM (inactive) |
| COc1cc(S(=O)(=O)N2CCN(c3ccc(C)c(C)c3)CC2)ccc1F | > 28 µM (inactive) |
| O=C(c1ccc2c(c1)OCO2)N1CCN(c2ccc(Cl)cc2)CC1 | > 28 µM (inactive) |
| Fc1cccc(-c2cc3nc4c(c(N5CCOCC5)n3n2)CCC4)c1 | > 28 µM (inactive) |
| CC(=O)Nc1ccc(Nc2nc(-c3ccc(C(=O)NC4CC4)cc3)nc3nc[nH]c23)cc1 | > 27.8 µM (inactive) |
| Cn1c2c(c(=O)n(C)c1=O)C(c1cccc(F)c1)C1=C(CC(C)(C)CC1=O)N2 (configuration not stated) | > 27.8 µM (inactive) |
| COc1cccc(/C=N/NC(=O)C(C)Nc2ccc(C)cc2)c1O (configuration not stated) | > 28 µM (inactive) |
| Cc1cc2nc3c(=O)n(C4CCCCCC4)c(=O)[nH]c3nc2cc1N | > 28 µM (inactive) |
| COc1ccc(-c2ccc(/C=N/N3C(=O)C4C5C=CC(C6CC56)C4C3=O)o2)c([N+](=O)[O-])c1 (configuration not stated) | > 28 µM (inactive) |
| N#CC1=C(N)Oc2n[nH]c(C34CC5CC(CC(C5)C3)C4)c2C1c1cccnc1 (configuration not stated) | > 27 µM (inactive) |
| Cc1ccc(/C=N/NC(=O)Cc2cccn2C)s1 | > 28 µM (inactive) |
| Nc1ncc(Br)cc1S(=O)(=O)N1CCN(C2CCCCC2)CC1 | > 28 µM (inactive) |
| COc1ccc(C(=O)Nc2nc(C)cs2)c(OC)n1 | > 28 µM (inactive) |
| Cc1cnc(C)c(NC2CCCCNC2=O)n1 (configuration not stated) | > 28 µM (inactive) |
| CCC(C)NC(=O)C1=C(C)C(=O)OC12CCCCC2 (configuration not stated) | > 28 µM (inactive) |
| COc1ccc(-c2noc(-c3cc4ccc(OC)cc4oc3=O)n2)cc1 | > 28 µM (inactive) |
| O=C1C2C3C=CC(C3)C2C(=O)N1Nc1c(Cl)cc(Cl)cc1Cl (configuration not stated) | > 28 µM (inactive) |
| CCN(CC)S(=O)(=O)c1ccc(C(=O)Nc2nnc(C(C)C)s2)cc1 | > 23.9 µM (inactive) |
| CCOc1cc(NC(=O)C2CCCO2)c(OCC)cc1NC(C)=O (configuration not stated) | > 9.34 µM (inactive) |
| COc1ccc(S(=O)(=O)N(C)C)c(Cl)c1Cl | > 28 µM (inactive) |
| CC(C)c1ccc2oc3nc(N)c(C(=O)O)cc3c(=O)c2c1 | > 28 µM (inactive) |
| C[C@H](O)[C@H]1NC(=O)[C@@H]2C[C@H](NCc3cccc(F)c3)CN2C1=O | > 28 µM (inactive) |
